In US9713608B2, “Method for topically treating actinic keratosis on the trunk (except chest) or extremities with ingenol 3-(3,5-diethylisoxazole-4-carboxylate)” (LEO Laboratories Limited, priority 2013, dated 2017):

What was measured:
[1] = system: dermal tumours; experiment: in vivo studies in mice, effects on dermal tumours; details: compared to ingenol mebutate
Source text: The exact mechanism of action of ingenol 3-(3,5-diethylisoxazole-4-carboxylate) continues to be investigated, but it is believed that ingenol 3-(3,5-diethylisoxazole-4-carboxylate) has a dual mechanism of action inducing cell death as well as stimulation of immune response.

[2] = Phase 1 exploratory trial: safety and tolerability of topical gel on forearms of subjects with actinic keratosis; format: in vivo, human; details: for mean composite LSR scores, time of peak: 8-week trial period; for mean composite LSR scores at Week 8: Week 8, relative to baseline; for number of SAEs of SCC within treated areas: four SAEs in three subjects, about three times more fields treated with ingenol 3-(3,5-diethylisoxazole-4-carboxylate); for most common treatment related AEs: human, in vivo
Source text: Local skin reactions (LSRs) occurs sometimes in the treated area. Often LSRs are quantified by a scale evaluating the following types of skin reactions: erythema, flaking/scaling, crusting, swelling, vasiculation/pustulation, and erosion/ulceration which are categorized into categories 0-4 depending on the severity of the reactions.
A Phase 1 exploratory trial evaluating safety and tolerability of topical administration of ingenol 3-(3,5-diethylisoxazole-4-carboxylate) gel, 0.025%, 0.05% and 0.075% compared to ingenol mebutate gel 0.05% applied on two consecutive days to four separate 25 cm^2 treatment areas on the forearms of subjects with actinic keratosis (field therapy). A single-centre, randomised, active controlled, intra-patient controlled, investigator blind trial.
It is presently believed that ingenol 3-(3,5-diethylisoxazole-4-carboxylate) has a higher efficacy and/or milder LSR profile than ingenol mebutate.
This was a phase 1, single-centre, randomised, active controlled, intra-patient controlled, investigator blinded trial with intra-individual comparisons to explore the safety and tolerability of ingenol 3-(3,5-diethylisoxazole-4-carboxylate) gel 0.025%, 0.05%, and 0.075% compared to ingenol mebutate gel 0.05% applied once daily for two consecutive days on the forearms of subjects with AK.
(§1) The trial population included 40 subjects at least 18 years of age with 12-16 clinically typical, visible, discrete, non-keratotic AK lesions (referred to as selected AK lesions) suitable for RCM within four separate 25 cm^2 (5×5 cm) selected treatment areas (STAs) on the dorsal aspects of the forearms. Each STA was to be separated by at least 5 cm from other STAs.
For each eligible subject, the four STAs are randomised to receive one of four of the investigational product (IP or IPs): • ingenol 3-(3,5-diethylisoxazole-4-carboxylate) gel 0.025% • ingenol 3-(3,5-diethylisoxazole-4-carboxylate) gel 0.05% • ingenol 3-(3,5-diethylisoxazole-4-carboxylate) gel 0.075% • Ingenol mebutate gel 0.05%
Each IP is to be applied to one of the four STAs on each subject according to random assignment on two consecutive days (Day 1 and Day 2). This ensured that all subjects are treated with the four products on both treatment days. The trial consisted of three periods, a screening period, a treatment period, and an observation and follow-up period.
Each IP is applied to one of the four STAs on each subject according to random assignment on two consecutive days (Day 1 and Day 2). The IPs are applied by a specified investigational staff member in the clinical study protocol. Subjects are instructed about post-treatment care and provided with a patient safety and study medication instruction sheet.

[3] = system: actinic keratosis (AK) lesions; experiment: Phase 1 exploratory trial: treatment response of AK lesions (clinical count and Reflectance Confocal Microscopy); format: in vivo, human; details: for RCM findings in lesions: overall, clinically visible AK lesions and subclinical lesions
Source text: To evaluate treatment responses on AKs of the three concentrations of ingenol 3-(3,5-diethylisoxazole-4-carboxylate) gel compared to the ingenol mebutate gel as assessed by reduction in number of clinically visible selected AK lesions eight weeks after treatment.
To evaluate treatment responses on AKs of the three concentrations of ingenol 3-(3,5-diethylisoxazole-4-carboxylate) gel compared to the ingenol mebutate gel as assessed by Reflectance Confocal Microscopy (RCM) scoring of the clinically visible selected AK lesions before and eight weeks after treatment.
as §1
Whenever possible, four visible and discrete selected AK lesions are identified within each of the four STAs. However, one STA with three selected AK lesions is acceptable for a subject. The selected AK lesions are assessed by RCM. If a selected AK lesion could not be confirmed as an AK lesion by RCM, another STA with selected AK lesions has to be identified. In addition, each subject is to have one subclinical AK lesion suitable for RCM within each STA (these subclinical AKs are referred to as selected subclinical AK lesions).
Treatment efficacy is included as a secondary endpoint and assessed by change in number of clinically visible AK lesions from baseline to 8 weeks after treatment and change in RCM scores from baseline to 8 weeks after treatment.

[4] = difficult to treat versus more easily treated anatomical regions; cited from earlier work

CCc1noc(CC)c1C(=O)O[C@H]1C(C)=C[C@]23C(=O)[C@@H](C=C(CO)[C@@H](O)[C@]12O)[C@H]1[C@@H](C[C@H]3C)C1(C)C [ingenol 3-(3,5-diethylisoxazole-4-carboxylate)]
efficacy in eliminating dermal tumours [1]: more efficacious than ingeno mebutate
mean composite LSR scores, time of peak [2]: peaked at Week 1
mean composite LSR scores at Week 8 [2]: below baseline at Week 8
incidence of AEs inside STAs ([2]; between treatments): no difference
number of SAEs of SCC within treated areas [2]: Two
most common treatment related AEs [2]: pruritus, burning sensation and tenderness
events of Bowen's disease inside treated area ([2]; possibly related AE, reclassified to SAE by sponsor): one
change of RCM scores ([3]; baseline to 8 weeks, between the two actives): no difference
RCM findings in lesions [3]: honeycomb pattern of lesions improved, keratosis decreased, and the thickness of stratum corneum and viable epidermis decreased

C/C=C(/C)C(=O)O[C@H]1C(C)=C[C@]23C(=O)[C@@H](C=C(CO)[C@@H](O)[C@]12O)[C@H]1[C@@H](C[C@H]3C)C1(C)C [ingenol mebutate, reference compound]
mean composite LSR scores, time of peak [2]: peaked at Week 1
mean composite LSR scores at Week 8 [2]: below baseline at Week 8
number of SAEs of SCC within treated areas [2]: two
most common treatment related AEs [2]: pruritus, burning sensation and tenderness
RCM findings in lesions [3]: honeycomb pattern of lesions improved, keratosis decreased, and the thickness of stratum corneum and viable epidermis decreased
local skin reactions after a given dose [4]: milder on difficult to treat anatomical regions
